Source: patent US9445998B2, “Pharmaceutical dosage forms comprising a low-solubility drug and a polymer” (Bend Research, Inc., priority 2004, dated 2016)
Like-named read-outs stand apart in the source and are kept apart here.

Assays:
[1] = Dissolution in phosphate buffered saline at pH 6.5 (ziprasidone); type: physicochemical; settings: PBS pH 6.5, at equilibrium; drug crystallizes as the free base form
Description: (§1) An example of a drug having a crystalline highly soluble salt form is ziprasidone. Ziprasidone hydrochloride monohydrate has a solubility of about 10 μgA/mL (expressed as the free base) in water, whereas the free base form has a solubility of less than about 0.2 μgA/mL under the same conditions. Thus, crystalline ziprasidone hydrochloride is a solubility-improved form relative to the crystalline free base form of ziprasidone.
An appropriate MFD solution is the same PBS solution wherein there is also present 7.3 mM sodium taurocholic acid and 1.4 mM of 1-palmitoyl-2-oleyl-sn-glycero-3-phosphocholine.

[2] = type: physicochemical; settings: not told, 100 μgA/mL, pH 6.5
Protocol: An Accurel® PP 1E microporous polypropylene membrane was obtained from Membrana GmbH (Wuppertal, Germany). The membrane was washed in isopropyl alcohol and rinsed in methanol in a sonicating bath for 1 minute at ambient temperature, and then allowed to air dry at ambient temperature. The feed side of the membrane was then plasma-treated to render it hydrophilic by placing a sample of the membrane in a plasma chamber. The atmosphere of the plasma chamber was saturated with water vapor at a pressure of 550 mtorr. A plasma was then generated using radio frequency (RF) power inductively coupled into the chamber via annular electrodes at a power setting of 50 watts for 45 seconds. The contact angle of a drop of water placed on the surface of the plasma-treated membrane was less than about 40°. The contact angle of a drop of water placed on the permeate side of the same membrane was greater than about 110°.
A permeate reservoir was formed by gluing a sample of the plasma-treated membrane to a glass tube having an inside diameter of about 1 inch (2.54 cm) using an epoxy-based glue (LOCTITE® E-30CL HYSOL® from Henkel Loctite Corp, Rocky Hill, Conn.). The feed-side of the membrane was oriented so that it was on the outside of the permeate reservoir, while the permeate-side of the membrane was oriented so that it was on the inside of the reservoir. The effective membrane area of the membrane on the permeate reservoir was about 4.9 cm^2. The permeate reservoir was placed into a glass feed reservoir. The feed reservoir was equipped with a magnetic stir bar and the reservoir was placed on a stir plate and the stir rate was set to 100 rpm during the test. The apparatus was placed into a chamber maintained at 37° C. for the duration of the test. Further details of the test apparatus and protocols are presented in co-pending U.S. Patent Application Ser. No. 60/557,897, entitled “Method and Device for Evaluation of Pharmaceutical Compositions,” filed Mar. 30, 2004, incorporated herein by reference.
To form the feed solution, a 1.429 mg (0.5 mgA) sample of CC-1 was weighed into a feed reservoir. (As used herein, “mgA” is milligrams of active drug, reported as the free base, non-salt form, non-hydrate drug molecule.) To this was added 5 mL of the MFD solution previously described, consisting of PBS solution containing 7.3 mM sodium taurocholic acid and 1.4 mM of 1-palmitoyl-2-oleyl-sn-glycero-3-phosphocholine (0.5% NaTC/POPC). […] The feed solution was mixed using a vortex mixer for 1 minute. Before the membrane contacted the feed solution, 5 mL of 60 wt % decanol in decane was placed into the permeate reservoir. Time zero in the test was when the membrane was placed in contact with the feed solution. A […] aliquot of the permeate solution was collected at the times indicated. Samples were then diluted in […] IPA and analyzed using HPLC.
The maximum flux of drug across the membrane (in units of μgA/cm^2-min) was determined by performing a least-squares fit to the data in Table 4 from 0 to 60 minutes to obtain the slope (CC-1: 0.26 μgA/mL-min; Control 1A: 0.13 μgA/mL-min; Control 1B: 0.07 μgA/mL-min), multiplying the slope by the permeate volume (5 mL), and dividing by the membrane area (4.9 cm^2).

[3] = Microcentrifuge dissolution test in MFD solution; type: physicochemical; design: AUC: concentration or dose not given beside the values; settings: for Dissolved Ziprasidone Concentration / AUC: MFD solution pH 6.5, 37° C.; for Dissolved Ziprasidone Concentration: 200 μgA/mL if all dissolved
Protocol: A microcentrifuge dissolution test was performed to verify that ziprasidone hydrochloride monohydrate is a solubility-improved form of ziprasidone. For this test, a sufficient amount of ziprasidone hydrochloride monohydrate was added to a microcentrifuge test tube so that the concentration of ziprasidone would have been 200 μgA/mL, if all of the ziprasidone had dissolved. The tests were run in duplicate. The tubes were placed in a 37° C. temperature-controlled chamber, and 1.8 mL MFD solution at pH 6.5 and 290 mOsm/kg was added to each respective tube. The samples were quickly mixed using a vortex mixer for about 60 seconds. The samples were centrifuged at 13,000 G at 37° C. for 1 minute prior to collecting a sample. The resulting supernatant solution was then sampled and diluted 1:5 (by volume) with methanol. Samples were analyzed by high-performance liquid chromatography (HPLC) at a UV absorbance of 315 nm using a Zorbax RxC8 Reliance column and a mobile phase consisting of 55% (50 mM potassium dihydrogen phosphate, pH 6.5)/45% acetonitrile. Drug concentration was calculated by comparing UV absorbance of samples to the absorbance of drug standards. The contents of each tube were mixed on the vortex mixer and allowed to stand undisturbed at 37° C. until the next sample was taken. Samples were collected at 4, 10, 20, 40, 90, and 1200 minutes following administration to the MFD solution.
A similar test was performed with the crystalline ziprasidone free base as a control, and a sufficient amount of material was added so that the concentration of compound would have been 200 μgA/mL, if all of the ziprasidone had dissolved.
The concentrations of ziprasidone obtained in these tests were used to determine the maximum dissolved concentration of ziprasidone (“MDC90”) and the area under the concentration-versus-time curve (“AUC90”) during the initial ninety minutes.

[4] = Solubility in water; type: physicochemical; settings: expressed as the free base, listed as free base form
Description: as §1

equilibrium solubility [1]: about 0.2 μgA/mL
Ziprasidone Concentration in Permeate ([2]; 0 min): 0.0 μgA/mL
Maximum Flux of Ziprasidone [2]: 0.07 μgA/cm^2-min
Ziprasidone Concentration in Permeate ([2]; 20 min): 0.0 μgA/mL
Ziprasidone Concentration in Permeate ([2]; 40 min): 3.3 μgA/mL
Ziprasidone Concentration in Permeate ([2]; 60 min): 3.4 μgA/mL
Ziprasidone Concentration in Permeate ([2]; 90 min): 5.4 μgA/mL
Ziprasidone Concentration in Permeate ([2]; 120 min): 6.8 μgA/mL
Ziprasidone Concentration in Permeate ([2]; 180 min): 9.2 μgA/mL
Ziprasidone Concentration in Permeate ([2]; 245 min): 11.5 μgA/mL
Ziprasidone Concentration in Permeate ([2]; 360 min): 14.7 μgA/mL
Dissolved Ziprasidone Concentration ([3]; time 4 min): 1 μgA/mL
Dissolved Ziprasidone Concentration ([3]; time 10 min): 1 μgA/mL
Dissolved Ziprasidone Concentration ([3]; time 20 min): 1 μgA/mL
Dissolved Ziprasidone Concentration ([3]; time 40 min): 2 μgA/mL
Dissolved Ziprasidone Concentration ([3]; time 90 min): 1 μgA/mL
Dissolved Ziprasidone Concentration ([3]; time 1200 min): 2 μgA/mL
AUC ([3]; up to time 4 min): 3 min-μgA/mL
AUC ([3]; up to time 10 min): 11 min-μgA/mL
AUC ([3]; up to time 20 min): 23 min-μgA/mL
AUC ([3]; up to time 40 min): 51 min-μgA/mL
AUC ([3]; up to time 90 min): 120 min-μgA/mL
AUC ([3]; up to time 1200 min): 2000 min-μgA/mL
AUC90 ([3]; area under the concentration-versus-time curve during the initial ninety minutes, MFD solution): 120 min·µgA/mL
MDC90 ([3]; maximum dissolved concentration during the initial ninety minutes, MFD solution): 2 µgA/mL
solubility in water [4]: less than 0.2 μgA/mL
Compound: O=C1Cc2cc(CCN3CCN(c4nsc5ccccc45)CC3)c(Cl)cc2N1 [Ziprasidone Free Base, ziprasidone]
